Earlier results in publication PMC3960879 (Biology, 2013).

Test system: FimH
Set-up: method as in PMID 18446213
Details: cited from earlier work

In the case of `CC(=O)N[C@H]1[C@H](O[C@H]2[C@H](O)[C@@H](NC(C)=O)C(O)O[C@@H]2CO)O[C@H](CO)[C@@H](O[C@@H]2O[C@H](CO[C@H]3O[C@H](CO)[C@@H](O)[C@H](O)[C@@H]3O)[C@@H](O)[C@H](O[C@H]3O[C@H](CO)[C@@H](O)[C@H](O)[C@@H]3O)[C@@H]2O)[C@@H]1O` (stereo partly shown) [oligomannose-3], the “increased binding compared to α-D-mannose” value is listed as 100 fold.
